In ChEMBL document CHEMBL3763148, “Synthesis, structure elucidation, DNA-PK and PI3K and anti-cancer activity of 8- and 6-aryl-substituted-1-3-benzoxazines” (Eur J Med Chem, 2016):
pIC50: −log10 of the molar value.

Columns and labels:
NCI-H460 = assay: Cytotoxicity against human NCI-H460 cells assessed as cell growth inhibition at 10 uM after 48 hrs by SRB assay relative to control; type: functional; conditions: NCI-H460, 48 h, read-out: GI
MDA-MB-435 = assay: Cytotoxicity against human MDA-MB-435 cells assessed as cell growth inhibition at 10 uM after 48 hrs by SRB assay relative to control; type: functional; conditions: MDA-MB-435, 48 h, read-out: GI
[1] = Cytotoxicity against human OVCAR5 cells assessed as cell growth inhibition at 10 uM after 48 hrs by SRB assay relative to control; type: functional; conditions: OVCAR-5, 48 h, read-out: GI
[2] = Cytotoxicity against human HOP62 cells assessed as cell growth inhibition at 10 uM after 48 hrs by SRB assay relative to control; type: functional; conditions: HOP-62, 48 h, read-out: GI
[3] = Cytotoxicity against human HCT15 cells assessed as cell growth inhibition at 10 uM after 48 hrs by SRB assay relative to control; type: functional; conditions: HCT-15, 48 h, read-out: GI
SK-MEL-2 = assay: Cytotoxicity against human SK-MEL-2 cells assessed as cell growth inhibition at 10 uM after 48 hrs by SRB assay relative to control; type: functional; conditions: SK-MEL-2, 48 h, read-out: GI
[4] = Cytotoxicity against human IGROV1 cells assessed as cell growth inhibition at 10 uM after 48 hrs by SRB assay relative to control; type: functional; conditions: IGROV-1, 48 h, read-out: GI
EKVX = assay: Cytotoxicity against human EKVX cells assessed as cell growth inhibition at 10 uM after 48 hrs by SRB assay relative to control; type: functional; conditions: read-out: GI
MDA-MB-231 = assay: Cytotoxicity against human MDA-MB-231 cells assessed as cell growth inhibition at 10 uM after 48 hrs by SRB assay relative to control; type: functional; conditions: MDA-MB-231, 48 h, read-out: GI
SK-MEL-28 = assay: Cytotoxicity against human SK-MEL-28 cells assessed as cell growth inhibition at 10 uM after 48 hrs by SRB assay relative to control; type: functional; conditions: SK-MEL-28, 48 h, read-out: GI
SR = assay: Cytotoxicity against human SR cells assessed as cell growth inhibition at 10 uM after 48 hrs by SRB assay relative to control; type: functional; conditions: read-out: GI
NCI-H226 = assay: Cytotoxicity against human NCI-H226 cells assessed as cell growth inhibition at 10 uM after 48 hrs by SRB assay relative to control; type: functional; conditions: NCI-H226, 48 h, read-out: GI
[5] = Cytotoxicity against human HL-60(TB) cells assessed as cell growth inhibition at 10 uM after 48 hrs by SRB assay relative to control; type: functional; conditions: HL-60, 48 h, read-out: GI
[6] = Cytotoxicity against human SF539 cells assessed as cell growth inhibition at 10 uM after 48 hrs by SRB assay relative to control; type: functional; conditions: SF-539, 48 h, read-out: GI
[7] = Cytotoxicity against human HOP92 cells assessed as cell growth inhibition at 10 uM after 48 hrs by SRB assay relative to control; type: functional; conditions: HOP-92, 48 h, read-out: GI
NCI-H322M = assay: Cytotoxicity against human NCI-H322M cells assessed as cell growth inhibition at 10 uM after 48 hrs by SRB assay relative to control; type: functional; conditions: read-out: GI
786-0 = assay: Cytotoxicity against human 786-0 cells assessed as cell growth inhibition at 10 uM after 48 hrs by SRB assay relative to control; type: functional; conditions: 786-0, 48 h, read-out: GI
[8] = Cytotoxicity against human SF268 cells assessed as cell growth inhibition at 10 uM after 48 hrs by SRB assay relative to control; type: functional; conditions: SF-268, 48 h, read-out: GI
[9] = Cytotoxicity against human SNB19 cells assessed as cell growth inhibition at 10 uM after 48 hrs by SRB assay relative to control; type: functional; conditions: SNB-19, 48 h, read-out: GI
[10] = Cytotoxicity against human RXF393 cells assessed as cell growth inhibition at 10 uM after 48 hrs by SRB assay relative to control; type: functional; conditions: RXF 393, 48 h, read-out: GI
[11] = Cytotoxicity against human SF295 cells assessed as cell growth inhibition at 10 uM after 48 hrs by SRB assay relative to control; type: functional; conditions: SF-295, 48 h, read-out: GI
[12] = Cytotoxicity against human NCI-ADR-RES cells assessed as cell growth inhibition at 10 uM after 48 hrs by SRB assay relative to control; type: functional; conditions: read-out: GI
MCF7 = assay: Cytotoxicity against human MCF7 cells assessed as cell growth inhibition at 10 uM after 48 hrs by SRB assay relative to control; type: functional; conditions: MCF7, 48 h, read-out: GI
U-251 = assay: Cytotoxicity against human U251 cells assessed as cell growth inhibition at 10 uM after 48 hrs by SRB assay relative to control; type: functional; conditions: U-251, 48 h, read-out: GI
[13] = molecular target: DNA-dependent protein kinase catalytic subunit (Homo sapiens, UniProt P78527); assay: Inhibition of human DNA-PK using EPPLSQEAFADLWKK as substrate by HTRF assay
[14] = Cytotoxicity against human DU145 cells assessed as cell growth inhibition at 10 uM after 48 hrs by SRB assay relative to control; type: functional; conditions: DU-145, 48 h, read-out: GI
[15] = Cytotoxicity against human RPMI8226 cells assessed as cell growth inhibition at 10 uM after 48 hrs by SRB assay relative to control; type: functional; conditions: RPMI-8226, 48 h, read-out: GI
[16] = Cytotoxicity against human OVCAR3 cells assessed as cell growth inhibition at 10 uM after 48 hrs by SRB assay relative to control; type: functional; conditions: OVCAR-3, 48 h, read-out: GI

DNA-dependent protein kinase catalytic subunit, sequence (P78527 whole entry): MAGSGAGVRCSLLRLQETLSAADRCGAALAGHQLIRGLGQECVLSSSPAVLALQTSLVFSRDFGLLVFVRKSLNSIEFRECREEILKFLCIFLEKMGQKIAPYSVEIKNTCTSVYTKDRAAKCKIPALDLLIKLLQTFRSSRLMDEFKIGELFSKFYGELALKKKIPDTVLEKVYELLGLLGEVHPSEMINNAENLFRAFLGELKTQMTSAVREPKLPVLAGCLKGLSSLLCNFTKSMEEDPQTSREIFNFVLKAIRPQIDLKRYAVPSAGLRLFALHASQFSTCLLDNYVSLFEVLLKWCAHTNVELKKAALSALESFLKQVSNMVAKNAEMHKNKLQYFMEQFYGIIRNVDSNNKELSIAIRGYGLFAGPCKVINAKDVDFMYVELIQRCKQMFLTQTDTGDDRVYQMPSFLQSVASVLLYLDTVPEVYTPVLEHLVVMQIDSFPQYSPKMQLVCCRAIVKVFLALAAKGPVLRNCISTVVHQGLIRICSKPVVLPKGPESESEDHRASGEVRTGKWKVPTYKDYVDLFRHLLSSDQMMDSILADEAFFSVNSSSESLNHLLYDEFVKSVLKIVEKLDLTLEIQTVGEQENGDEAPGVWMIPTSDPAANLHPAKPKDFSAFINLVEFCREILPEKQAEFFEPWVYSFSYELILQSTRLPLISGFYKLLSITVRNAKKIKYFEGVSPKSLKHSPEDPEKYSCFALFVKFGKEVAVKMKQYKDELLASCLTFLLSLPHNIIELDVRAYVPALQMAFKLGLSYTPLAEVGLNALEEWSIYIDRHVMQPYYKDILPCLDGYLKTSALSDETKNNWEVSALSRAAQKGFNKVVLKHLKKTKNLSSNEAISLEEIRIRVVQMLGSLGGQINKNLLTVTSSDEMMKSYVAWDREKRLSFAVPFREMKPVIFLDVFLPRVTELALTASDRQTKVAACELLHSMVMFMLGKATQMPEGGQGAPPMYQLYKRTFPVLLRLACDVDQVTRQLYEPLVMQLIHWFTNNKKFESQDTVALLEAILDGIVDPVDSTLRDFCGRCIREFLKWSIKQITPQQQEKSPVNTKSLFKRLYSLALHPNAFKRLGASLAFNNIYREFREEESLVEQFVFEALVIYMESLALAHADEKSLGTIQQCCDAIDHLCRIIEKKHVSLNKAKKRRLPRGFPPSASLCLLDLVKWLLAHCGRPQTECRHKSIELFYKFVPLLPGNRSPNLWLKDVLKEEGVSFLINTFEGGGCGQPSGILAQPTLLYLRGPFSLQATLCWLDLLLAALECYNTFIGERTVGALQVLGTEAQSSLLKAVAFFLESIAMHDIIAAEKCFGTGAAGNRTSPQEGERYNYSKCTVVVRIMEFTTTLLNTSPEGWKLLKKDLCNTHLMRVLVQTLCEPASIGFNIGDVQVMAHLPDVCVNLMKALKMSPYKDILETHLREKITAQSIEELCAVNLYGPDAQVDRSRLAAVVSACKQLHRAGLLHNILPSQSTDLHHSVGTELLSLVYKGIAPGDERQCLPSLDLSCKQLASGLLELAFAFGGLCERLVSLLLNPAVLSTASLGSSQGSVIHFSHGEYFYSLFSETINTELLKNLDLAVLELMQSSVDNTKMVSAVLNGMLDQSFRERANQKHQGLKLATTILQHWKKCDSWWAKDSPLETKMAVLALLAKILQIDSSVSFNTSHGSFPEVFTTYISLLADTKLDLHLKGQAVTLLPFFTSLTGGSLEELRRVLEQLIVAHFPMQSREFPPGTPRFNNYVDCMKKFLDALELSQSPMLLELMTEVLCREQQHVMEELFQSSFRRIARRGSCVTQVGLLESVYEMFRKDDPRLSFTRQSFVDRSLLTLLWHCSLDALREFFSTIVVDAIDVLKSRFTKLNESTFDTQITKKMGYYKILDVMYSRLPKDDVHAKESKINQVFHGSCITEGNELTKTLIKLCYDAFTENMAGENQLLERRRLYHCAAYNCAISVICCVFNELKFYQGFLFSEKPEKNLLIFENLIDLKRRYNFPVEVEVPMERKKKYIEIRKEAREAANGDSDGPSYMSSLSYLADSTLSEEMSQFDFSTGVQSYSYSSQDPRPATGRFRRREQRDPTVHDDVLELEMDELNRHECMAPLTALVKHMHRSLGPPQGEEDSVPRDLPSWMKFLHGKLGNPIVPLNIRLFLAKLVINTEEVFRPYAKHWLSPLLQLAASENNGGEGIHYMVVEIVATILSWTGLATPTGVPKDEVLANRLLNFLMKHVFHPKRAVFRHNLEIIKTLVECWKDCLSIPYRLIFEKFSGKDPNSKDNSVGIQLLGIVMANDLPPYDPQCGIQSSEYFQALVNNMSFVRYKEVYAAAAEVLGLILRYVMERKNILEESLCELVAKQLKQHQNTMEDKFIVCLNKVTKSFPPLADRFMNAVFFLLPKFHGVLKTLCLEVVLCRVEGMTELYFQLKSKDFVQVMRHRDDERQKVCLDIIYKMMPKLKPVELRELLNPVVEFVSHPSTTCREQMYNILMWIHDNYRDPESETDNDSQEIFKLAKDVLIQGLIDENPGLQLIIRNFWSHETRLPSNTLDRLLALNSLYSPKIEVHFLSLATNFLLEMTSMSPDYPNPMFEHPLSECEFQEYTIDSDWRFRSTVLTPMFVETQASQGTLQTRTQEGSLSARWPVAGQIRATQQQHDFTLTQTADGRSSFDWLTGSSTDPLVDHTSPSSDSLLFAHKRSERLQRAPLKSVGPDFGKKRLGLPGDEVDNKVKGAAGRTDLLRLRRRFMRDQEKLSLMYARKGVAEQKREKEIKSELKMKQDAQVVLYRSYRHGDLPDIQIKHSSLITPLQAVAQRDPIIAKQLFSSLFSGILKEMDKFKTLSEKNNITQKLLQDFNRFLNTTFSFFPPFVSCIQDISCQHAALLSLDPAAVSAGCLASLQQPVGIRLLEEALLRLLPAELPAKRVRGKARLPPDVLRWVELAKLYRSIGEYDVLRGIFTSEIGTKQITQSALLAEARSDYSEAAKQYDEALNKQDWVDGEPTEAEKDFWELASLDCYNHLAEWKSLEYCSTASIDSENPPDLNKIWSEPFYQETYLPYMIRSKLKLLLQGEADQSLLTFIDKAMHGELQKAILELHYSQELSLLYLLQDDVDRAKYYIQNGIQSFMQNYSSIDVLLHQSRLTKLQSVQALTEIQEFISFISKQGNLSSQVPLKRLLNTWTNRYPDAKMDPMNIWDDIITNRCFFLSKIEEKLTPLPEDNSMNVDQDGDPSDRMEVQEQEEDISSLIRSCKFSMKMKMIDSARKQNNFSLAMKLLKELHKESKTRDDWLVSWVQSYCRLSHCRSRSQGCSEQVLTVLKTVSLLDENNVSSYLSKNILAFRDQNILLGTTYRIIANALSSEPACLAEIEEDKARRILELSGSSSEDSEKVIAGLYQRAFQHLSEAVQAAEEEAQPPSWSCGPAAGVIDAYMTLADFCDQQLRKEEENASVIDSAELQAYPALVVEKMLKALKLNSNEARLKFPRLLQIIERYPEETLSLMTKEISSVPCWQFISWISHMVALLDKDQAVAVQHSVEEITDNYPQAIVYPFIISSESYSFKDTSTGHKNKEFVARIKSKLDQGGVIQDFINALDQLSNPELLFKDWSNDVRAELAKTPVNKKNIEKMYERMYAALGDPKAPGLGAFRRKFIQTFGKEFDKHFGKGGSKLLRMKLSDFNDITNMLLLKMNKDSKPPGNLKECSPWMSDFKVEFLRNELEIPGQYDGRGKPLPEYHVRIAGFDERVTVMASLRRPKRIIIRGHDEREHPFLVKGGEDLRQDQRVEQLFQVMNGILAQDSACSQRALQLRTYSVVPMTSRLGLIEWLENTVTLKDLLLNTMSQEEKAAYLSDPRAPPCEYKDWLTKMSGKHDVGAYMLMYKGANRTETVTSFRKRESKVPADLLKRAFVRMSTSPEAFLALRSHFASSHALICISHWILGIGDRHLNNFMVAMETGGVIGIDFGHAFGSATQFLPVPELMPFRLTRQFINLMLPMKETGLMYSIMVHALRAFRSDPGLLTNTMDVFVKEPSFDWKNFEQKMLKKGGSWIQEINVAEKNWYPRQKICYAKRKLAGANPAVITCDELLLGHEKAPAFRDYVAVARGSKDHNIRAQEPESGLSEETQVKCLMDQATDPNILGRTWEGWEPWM

Structure (SMILES)	inhibition of growth at 10 µM (NCI-H460)	inhibition of growth at 10 µM (MDA-MB-435)	inhibition of growth at 10 µM [1]	inhibition of growth at 10 µM [2]	inhibition of growth at 10 µM [3]	inhibition of growth at 10 µM (SK-MEL-2)	inhibition of growth at 10 µM [4]	inhibition of growth at 10 µM (EKVX)	inhibition of growth at 10 µM (MDA-MB-231)	inhibition of growth at 10 µM (SK-MEL-28)	inhibition of growth at 10 µM (SR)	inhibition of growth at 10 µM (NCI-H226)	inhibition of growth at 10 µM [5]	inhibition of growth at 10 µM [6]	inhibition of growth at 10 µM [7]	inhibition of growth at 10 µM (NCI-H322M)	inhibition of growth at 10 µM (786-0)	inhibition of growth at 10 µM [8]	inhibition of growth at 10 µM [9]	inhibition of growth at 10 µM [10]	further results
O=c1nc(N2CCOCC2)oc2c(-c3cccc4c3oc3ccccc34)cccc12	-2.97%	17.1%	10.7%	13%	13.1%	-4.28%	0.3%	18.2%	18%	2.4%	34.7%	27.7%	5.92%	3.81%	45.6%	22.3%	21.8%	9.26%	4.3%	15%	inhibition of growth at 10 µM [11]: 0.3%; inhibition of growth at 10 µM [12]: 12.8%; inhibition of growth at 10 µM (MCF7): 11.3%; inhibition of growth at 10 µM (U-251): 7.66%; pIC50 [13]: 6.57; inhibition of growth at 10 µM [14]: 1.77%; inhibition of growth at 10 µM [15]: 1.19%; inhibition of growth at 10 µM [16]: 2.85%
O=c1nc(N2CCOCC2)oc2c(-c3cccs3)cccc12	-5.8%	-0.12%	4.55%	8.34%	0.33%	-7.08%	8.05%	14.1%	-6.21%	2.22%	18%	22%	3.68%	1.52%	44.4%	9.05%	7.7%	5.21%	5.86%	9.88%	inhibition of growth at 10 µM [11]: -0.99%; inhibition of growth at 10 µM [12]: 11%; inhibition of growth at 10 µM (MCF7): 21.9%; inhibition of growth at 10 µM (U-251): 4.68%; pIC50 [13]: 5.15; inhibition of growth at 10 µM [14]: -2.35%; inhibition of growth at 10 µM [15]: -0.55%; inhibition of growth at 10 µM [16]: 2.61%
COc1ccc(-c2cccc3c(=O)nc(N4CCOCC4)oc23)cc1	-5.69%	1.03%	4.76%	5.81%	3.13%	-9.8%	0.87%	11.1%	3.13%	2.38%	26.1%	15.1%	7.35%	-2.27%	34.8%	3.11%	9.72%	6.91%	-0.25%	7.94%	inhibition of growth at 10 µM [11]: 2.78%; inhibition of growth at 10 µM [12]: 9.12%; inhibition of growth at 10 µM (MCF7): 17.4%; inhibition of growth at 10 µM (U-251): 0.83%; pIC50 [13]: 5.00; inhibition of growth at 10 µM [14]: 1.58%; inhibition of growth at 10 µM [15]: -0.31%; inhibition of growth at 10 µM [16]: 5.94%
